# Results as given in ChEMBL document CHEMBL3098048, “TMEDA-derived biscationic amphiphiles: An economical preparation of potent antibacterial agents” (2014).
# How the values were obtained:
# Type in all cases: functional
# Escherichia coli = assay: Antibacterial activity against Escherichia coli MC4100 assessed as growth inhibition after 72 hrs by broth microdilution method; details: MC4100, 72 h
# Staphylococcus aureus = assay: Antibacterial activity against Staphylococcus aureus SH1000 assessed as growth inhibition after 72 hrs by broth microdilution method; details: SH1000, 72 h
# Pseudomonas aeruginosa = assay: Antibacterial activity against wild-type Pseudomonas aeruginosa PAO1 assessed as growth inhibition after 72 hrs by broth microdilution method; details: PAO1, 72 h
# Enterococcus faecalis = assay: Antibacterial activity against Enterococcus faecalis OG1RF assessed as growth inhibition after 72 hrs by broth microdilution method
SMILES,MIC (Escherichia coli),MIC (Staphylococcus aureus),MIC (Pseudomonas aeruginosa),MIC (Enterococcus faecalis)
CCCCCCCCCCCCCCCCCC[N+](C)(C)CC[N+](C)(C)CCCCCCCC,8 µM,2 µM,32 µM,2 µM
CCCCCCCCCCCC[N+](C)(C)CC[N+](C)(C)CCCCCCCCCC,2 µM,1 µM,2 µM,2 µM
CCCCCCCCCCCC[N+](C)(C)CC[N+](C)(C)CCCCCCCC,4 µM,1 µM,4 µM,4 µM
CCCCCCCCCC[N+](C)(C)CC[N+](C)(C)CCCCCCCC,63 µM,8 µM,125 µM,63 µM
CCCCCCCC[N+](C)(C)CC[N+](C)(C)CCCCCCCC,250 µM,32 µM,500 µM,500 µM
CCCCCCCCCCCCC[N+](C)(C)CC[N+](C)(C)CCCCCCCCCC,2 µM,1 µM,2 µM,1 µM
CCCCCCCCCCC[N+](C)(C)CC[N+](C)(C)CCCCCCCCCC,4 µM,1 µM,4 µM,4 µM
CCCCCCCCCCCCCCCCCCCC[N+](C)(C)CCN(C)C,63 µM,4 µM,125 µM,4 µM
CCCCCCCCCCCCCCCCCC[N+](C)(C)CCN(C)C,63 µM,2 µM,63 µM,4 µM
CCCCCCCCCCCCCCCC[N+](C)(C)CCN(C)C,16 µM,1 µM,16 µM,16 µM
CCCCCCCCCCCCCC[N+](C)(C)CCN(C)C,16 µM,2 µM,125 µM,8 µM
CCCCCCCCCCCC[N+](C)(C)CCN(C)C,63 µM,32 µM,250 µM,63 µM
CCCCCCCCCC[N+](C)(C)CCN(C)C,250 µM,63 µM,250 µM,250 µM
CCCCCCCC[N+](C)(C)CCN(C)C,> 1000 µM,> 1000 µM,> 1000 µM,> 1000 µM
CCCCCCCCCCCCCCCCCCCC[N+](C)(C)CC[N+](C)(C)CCCCCCCCCCCCCCCC,63 µM,16 µM,63 µM,32 µM
CCCCCCCCCCCCCCCCCCCC[N+](C)(C)CC[N+](C)(C)CCCCCCCCCCCCCC,16 µM,8 µM,63 µM,16 µM
CCCCCCCCCCCCCCCCCCCC[N+](C)(C)CC[N+](C)(C)CCCCCCCCCCCC,32 µM,8 µM,63 µM,4 µM
CCCCCCCCCCCCCCCCCCCC[N+](C)(C)CC[N+](C)(C)CCCCCCCCCC,16 µM,4 µM,16 µM,16 µM

SMILES,MIC (Escherichia coli),MIC (Staphylococcus aureus),MIC (Pseudomonas aeruginosa),MIC (Enterococcus faecalis)
CCCCCCCCCCCCCCCCCCCC[N+](C)(C)CC[N+](C)(C)CCCCCCCC,16 µM,4 µM,32 µM,4 µM
CCCCCCCCCCCCCCCCCC[N+](C)(C)CC[N+](C)(C)CCCCCCCCCCCCCCCCCC,250 µM,32 µM,500 µM,63 µM
CCCCCCCCCCCCCCCCCC[N+](C)(C)CC[N+](C)(C)CCCCCCCCCCCCCCCC,32 µM,16 µM,63 µM,32 µM
CCCCCCCCCCCCCCCCCC[N+](C)(C)CC[N+](C)(C)CCCCCCCCCCCCCC,16 µM,8 µM,63 µM,16 µM
CCCCCCCCCCCCCCCCCC[N+](C)(C)CC[N+](C)(C)CCCCCCCCCCCC,16 µM,4 µM,32 µM,4 µM
CCCCCCCCCCCCCCCCCC[N+](C)(C)CC[N+](C)(C)CCCCCCCCCC,16 µM,4 µM,32 µM,2 µM
CCCCCCCCCCCCCCCC[N+](C)(C)CC[N+](C)(C)CCCCCCCCCCCCCCCC,32 µM,8 µM,63 µM,8 µM
CCCCCCCCCCCCCCCC[N+](C)(C)CC[N+](C)(C)CCCCCCCCCCCCCC,16 µM,8 µM,63 µM,2 µM
CCCCCCCCCCCCCCCC[N+](C)(C)CC[N+](C)(C)CCCCCCCCCCCC,8 µM,8 µM,32 µM,4 µM
CCCCCCCCCCCCCCCC[N+](C)(C)CC[N+](C)(C)CCCCCCCCCC,8 µM,4 µM,32 µM,4 µM
CCCCCCCCCCCCCCCC[N+](C)(C)CC[N+](C)(C)CCCCCCCC,2 µM,2 µM,4 µM,2 µM
CCCCCCCCCCCCCC[N+](C)(C)CC[N+](C)(C)CCCCCCCCCCCCCC,4 µM,4 µM,32 µM,2 µM
CCCCCCCCCCCCCC[N+](C)(C)CC[N+](C)(C)CCCCCCCCCCCC,2 µM,1 µM,8 µM,2 µM
CCCCCCCCCCCCCC[N+](C)(C)CC[N+](C)(C)CCCCCCCCCC,2 µM,4 µM,4 µM,1 µM
CCCCCCCCCCCCCC[N+](C)(C)CC[N+](C)(C)CCCCCCCC,2 µM,1 µM,4 µM,2 µM
CCCCCCCCCCCC[N+](C)(C)CC[N+](C)(C)CCCCCCCCCCCC,2 µM,1 µM,4 µM,1 µM
CCCCCCCCCC[N+](C)(C)CC[N+](C)(C)CCCCCCCCCC,16 µM,2 µM,8 µM,8 µM
